Results taken from PMC12298883, “Discovery of Cyclopentane-Based Phospholipids as Miltefosine Analogs with Superior Potency and Enhanced Selectivity Against Naegleria fowleri” (Pharmaceuticals, 2025).

Legend:
N. fowleri trophozoites = assay: Anti-amoebic viability assay (CellTiter-Blue) with microscopic observation; assay type: cell-based, Naegleria fowleri; conditions: for Selectivity Index: CC50 of C6 glial cell divided by IC50 of inhibition of N. fowleri; for Relative Potency to Miltefosine: IC50 of miltefosine divided by IC50 of compound, N. fowleri; for IC50: Naegleria fowleri, 48 h, N. fowleri trophozoites, viability, mean ± SD of three assays, read-out: IC50 of Inhibition of N. fowleri; for fold increase in potency of anti-amoebic activity relative to corresponding cis-configured derivative: trans vs cis 1,2-restricted derivative with same alkyl chain
Procedure: (§1) A viability assay was performed to evaluate the inhibitory activity of the tested compounds by determining their IC50 values against N. fowleri, using miltefosine as a reference drug. To assess the selectivity of the tested compounds relative to miltefosine, cytotoxic values that reduced the viability of C6 glial cells by 50% were established.
(§2) N. fowleri Carter NF69 strain (ATCC 30215; American Type Culture Collection, Manassas, VA, USA) was used. Amoeba trophozoites were cultured and maintained in Nelson’s medium containing 5% foetal bovine serum (FBS; Gibco, Grand Island, NY, USA) and 1% penicillin/streptomycin (P/S; Gibco, Grand Island, NY, USA) at 37 °C [56]. C6 rat glial cells (C6 cells; ATCC CCL-107) were cultured in Dulbecco’s Modified Eagle’s Medium (DMEM; Gibco, Grand Island, NY, USA) supplemented with 10% FBS (Gibco, Grand Island, NY, USA) and 1% P/S (Gibco, Grand Island, NY, USA) at 37 °C in a humidified incubator under 5% CO2 atmosphere.
N. fowleri trophozoites (5 × 10^4 cells/well) were seeded in a 96-well microplate (Thermo Fisher Scientific, Waltham, MA, USA) in Nelson’s medium and incubated at 37 °C overnight. N. fowleri trophozoites were treated with 2-fold serial dilutions of tested compounds (from 0 to 200 µM) or miltefosine (150 µM) and incubated at 37 °C for 48 h. The viability of the amoebae was determined using the CellTiter-Blue® Cell viability assay (Promega, Madison, WI, USA). Inhibitory concentration 50 (IC50) and IC90 were calculated by the nonlinear regression method using GraphPad Prism 9.1.0 software (GraphPad Software, San Diego, CA, USA). Amoebae treated with 0.1% DMSO were used as a control, representing 100% cell viability. Morphological changes of the amoebae were observed microscopically.

[1] = Cytotoxicity assay for C6 cells (CellTiter-Blue); assay type: cell-based; conditions: rat, C6 glial cells, viability, mean ± SD
Procedure: as §1, §2
The potential cytotoxicity of tested compounds and miltefosine in C6 cells was analysed. The cells were seeded in a 96-well microplate (Thermo Fisher Scientific; 2 × 10^4 cells/well), respectively, and incubated overnight until 80% confluent. Serially diluted tested compounds and miltefosine were treated to the cells as described above. Morphological changes of the cells were observed by microscopic examination. Cell viability was determined using the CellTiter-Blue® Cell viability assay (Promega, […], USA). The cytotoxic concentrations 50 (CC50) of tested compounds and miltefosine were calculated using GraphPad Prism 9.1.0 software (GraphPad Software, San Diego, CA, USA). The […] (SI) was determined by the ratio between CC50 and IC50. Cells treated with 0.1% DMSO, which was confirmed not to alter the morphology of the cells by microscopic examination, were used as controls with 100% cell viability.

| Compound | Selectivity Index (N. fowleri trophozoites) | Relative Potency to Miltefosine (N. fowleri trophozoites) [fold] | IC50 (N. fowleri trophozoites) [µM] | CC50 [1] [µM] | fold increase in potency of anti-amoebic activity relative to corresponding cis-configured derivative (N. fowleri trophozoites) |
| --- | --- | --- | --- | --- | --- |
| CCCCCCCCCCCCO[C@H]1CCC[C@H]1COP(=O)([O-])OCC[N+](C)(C)C [Compound 1a] | >2.47 | ~0.90 | 162 ± 1.02 | > 400 | – |
| CCCCCCCCCCCCCO[C@H]1CCC[C@H]1COP(=O)([O-])OCC[N+](C)(C)C [Compound 1b] | 2.69 | 3.74 | 39.1 ± 0.6 | 105 ± 4.76 | – |
| CCCCCCCCCCCCCCCCCCO[C@H]1CCC[C@H]1COP(=O)([O-])OCC[N+](C)(C)C [Compound 1c] | 2.18 | 2.01 | 72.7 ± 2.32 | 158.4 ± 0.71 | – |
| CCCCCCCCCCCCCCCCCCCCO[C@H]1CCC[C@H]1COP(=O)([O-])OCC[N+](C)(C)C [Compound 1d] | 1.59 | 3.4 | 43.6 ± 1.02 | 69.49 ± 0.16 | – |
| CCCCCCCCCCCCCCCCCCCCCCO[C@H]1CCC[C@H]1COP(=O)([O-])OCC[N+](C)(C)C [Compound 1e] | 0.69 | 0.88 | 166 ± 68 | 114 ± 3.2 | – |
| CCCCCCCCCCCCCCCCCCO[C@@H]1CCC[C@H]1COP(=O)([O-])OCC[N+](C)(C)C [Compound 2b] | 2.94 | 6.18 | 23.7 ± 0.5 | 69.71 ± 0.04 | 2.19- to 3.07 fold |
| CCCCCCCCCCCCCCCCCCCCO[C@@H]1CCC[C@H]1COP(=O)([O-])OCC[N+](C)(C)C [Compound 2c] | 2.19 | 7.46 | 19.6 ± 0.44 | 43 ± 8.37 | 2.19- to 3.07 fold |
| CCCCCCCCCCCCCCCCCCCCCCO[C@@H]1CCC[C@H]1COP(=O)([O-])OCC[N+](C)(C)C [Compound 2d] | 1.28 | 2.63 | 55.6 ± 3.32 | 71.03 ± 0.61 | 2.98 fold |
| CCCCCCCCCCCCOC[C@@H]1CCC[C@H]1OP(=O)([O-])OCC[N+](C)(C)C [Compound 3a] | >1.43 | 0.52 | 279.4 ± 0.94 | > 400 | – |
| CCCCCCCCCCCCCCCCCCOC[C@@H]1CCC[C@H]1OP(=O)([O-])OCC[N+](C)(C)C [Compound 3c] | 0.77 | 1.92 | 76.3 ± 1.56 | 58.5 ± 2.08 | – |
